Reference: US20250090557A1 (priority 2020, published 2025)

System: SARS-CoV-2
Assay: Post-exposure prophylaxis in two household-exposed parents (case report)
Format: in vivo, human
Text: FIG. 8-a show the timeline of exposure, symptoms and diagnostic tests in household. Two parents [[…], A1 with history of chronic myelogenous leukemia (CML) and healthy parent 39 years, A2] were notified on Dec. 5, 2020 [defined as day 5 (D5)], that the schoolteacher (T1) of their child (C1) tested positive for SARS-CoV-2 and developed symptoms of Covid-19. C1 had 6-h exposure to T1 on November 30 (with masks) (D0). The family had no other exposure to any other person between November 20-30 (D-10 to D0) given Thanksgiving Day on November 26 (D-4). Several children and parents from the same school class were infected with Covid-19 within the first 2 weeks of December. C1 developed fever (100.4° F.;38° C.) and fatigue 2.5 days after exposure (DO) that lasted 3 days (D2-D5) and remained asymptomatic since then. The second child (C2) was asymptomatic until D12 when they developed fever (100.4° F.;38° C.), fatigue and coryza on D12-D14. A1 and A2 started Mito-MES on D4. […] A1, A2, C1 and C2 had fifteen (in total) negative NP SARS-CoV-2 PCR and each parent had 3 negative SARS-CoV-2 IgG serology over a period of 6 weeks (last NP PCR was on D42 and last SARS-CoV-2 IgG serology was on D45). The well-defined epidemiologic history around a major holiday and the timing (3-7 days) of development of symptoms in both children, confirmed that they both had Covid-19.
Two parents ([…], A1, and parent 39 years, A2) residing in Los Angeles, California were notified on Dec. 5, 2020 (defined as day 5 (D5); FIG. 8-a, C), that the schoolteacher (T1) of their child (C1) tested positive for SARS-CoV-2 and developed symptoms of Covid-19. C1 had 6-h exposure to T1 on November 30 (with masks) (DO). The family had no other exposure to any other person between November 20-30 (D-10 to DO) given Thanksgiving Day on November 26 (D-4). […]
One important consideration with COVID-19 testing is that it is often unclear how exactly the NP swab was obtained (by healthcare worker or not and whether the posterior or anterior nasopharynx were assessed). […]

For `COC1=C(OC)C(=O)C(CCCCCCCCCC[P+](c2ccccc2)(c2ccccc2)c2ccccc2)=C(C)C1=O.CS(=O)(=O)[O-]` [Mito-MES, 10-(4,5-dimethoxy-2-methyl-3,6-dioxo-1,4-cyclohexadienyl) decyl triphenylphosphonium methanesulfonate], the “inflammation markers in plasma” value (both parents, 6 timepoints over 6 weeks) was “normal CRP, ferritin and IL-6 plasma levels”, the “plasma IgG to SARS-CoV-2 S1 protein” value (each parent, three timepoints over 5 weeks) was “undetectable levels of plasma IgG to SARS-CoV-2 S1 protein” and the “symptoms and virological/serological confirmation of infection” value (two parents, 20 mg/day oral, 6 weeks, repeated household exposure) was “remained asymptomatic and without virological and serological confirmation of infection”.
